Drawing on the SangsterLogP compilation, this text covers logP for 18 molecules.

This data set in a line: method code SF-HPLC, from DOI: 10.1002/qsar.200300824.
By logP is commonly meant a log measure of how a compound divides between an organic and an aqueous phase. The low end stands for a more hydrophilic compound, the high end for a more lipophilic compound. As for `O=c1cc(-c2noc(-c3ccccc3)n2)c2ccccc2o1`, the log partition coefficient (logP) amounted to 3.22.

Molecule `CC1ON=C(c2cc(=O)oc3ccccc23)N1c1ccccc1` (stereo not drawn) had a logP of 2.7.

In turn, `COc1ccc(-c2noc(-c3cc(=O)oc4ccccc34)n2)cc1` returned a logP of 3.07.

`O=c1cc(-c2noc(=S)n2-c2ccccc2)c2ccccc2o1` displayed a logP of 3.03.

`O=c1oc2ccccc2c(C(CCO)=NO)c1Cl` registered a logP of 0.22.

`O=c1cc(C2=NOCN2)c2ccccc2o1` had a logP of 1.98.

On to `O=c1oc2ccccc2c(C(=NO)NC2CCCCC2)c1Cl`, for which the logP is 2.78.

`O=c1cc(C2=NOS(=O)N2c2ccccc2)c2ccccc2o1` (stereo not drawn) displayed a logP of 2.16.

In the case of `O=c1cc(C=NNc2ccccc2)c2ccccc2o1`, the logP turned out to be 3.63.

`Cc1nc(-c2cc(=O)oc3ccccc23)no1` showed a logP of 2.12.

In turn, `O=c1oc2ccccc2c(C(=NO)Nc2ccccc2)c1Cl` displayed a logP of 2.58.

`CC(=O)ON=C(N)c1cc(=O)oc2ccccc12`: the logP worked out at 1.

`O=c1cc(-c2ncon2)c2ccccc2o1` displayed a logP of 1.95.

`COc1ccc(C2=NOC(c3cc(=O)oc4ccccc34)O2)cc1` (stereo not drawn) came in with a logP of 3.04.

`O=c1cc(C2=NOCN2c2ccccc2)c2ccccc2o1` registered a logP of 2.45.

With `COc1ccc(-c2nc(-c3cc(=O)oc4ccccc34)no2)cc1`, the logP was found to be 2.98.

Molecule `Cc1ccc(NC(=NO)c2c(Cl)c(=O)oc3ccccc23)cc1` yielded a log partition coefficient (logP) of 2.89.

Molecule `CC1NC(c2cc(=O)oc3ccccc23)=NO1` (stereo not drawn) gave a logP of 1.93.
